In patent publication US10167262B2, “Herbicidal substituted 3-arylpyrazoles” (FMC CORPORATION, priority 2014, dated 2019):

Experiments:
Test in all cases: Test E pre-/postemergence greenhouse test, plant response rating 0-100
Type in all cases: in vivo
[1] = system: dayflower (Virginia (VA) dayflower, Commelina virginica); conditions: Preemergence, scale 0 to 100
Procedure, shortened: (§1)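 Greenhouse response on a 0 (none) to 100 (complete control) scale, assessed 14 to 21 days post-treatment. Soil-applied preemergence on silt loam; foliar postemergence on plants 2–18 cm high.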

[2] = system: fall panicum (Panicum dichotomiflorum); conditions: scale 0 to 100; for Panicum, Fall plant response rating: Preemergence
Procedure, shortened: as §1

[3] = system: hairy beggarticks (Bidens pilosa); conditions: scale 0 to 100; for Beggarticks plant response rating: Preemergence
Procedure, shortened: as §1

[4] = system: palmer pigweed (Amaranthus palmeri); conditions: scale 0 to 100; for Pigweed, Palmer plant response rating: Preemergence
Procedure, shortened: as §1

[5] = system: sandbur (southern sandbur, Cenchrus echinatus); conditions: scale 0 to 100; for Sandbur plant response rating: Preemergence
Procedure, shortened: as §1

[6] = system: wild poinsettia (Euphorbia heterophylla); conditions: scale 0 to 100; for Poinsettia, Wild plant response rating: Preemergence
Procedure, shortened: as §1

## COCC(=O)n1cc(C(=O)c2ccccc2)c(-c2cc(Cl)cc(Cl)c2)n1 [Compound 16, 1-[4-benzoyl-3-(3,5-dichlorophenyl)-1H-pyrazol-1-yl]-2-methoxyethanone]
[1]; 125 g ai/ha
  Dayflower, VA plant response rating: 0
[1]; 250 g ai/ha
  Dayflower, VA plant response rating: 0
[1]; 500 g ai/ha
  Dayflower, VA plant response rating: 0
[2]; Panicum dichotomiflorum, post-emergence, Postemergence, 31 g ai/ha
  pest or weed control at 31 g/ha: 0%
[2]; Panicum dichotomiflorum, post-emergence, Postemergence, 62 g ai/ha
  pest or weed control at 62 g/ha: 0%
[2]; Panicum dichotomiflorum, post-emergence, Postemergence, 125 g ai/ha
  pest or weed control at 125 g/ha: 60%
[2]; Panicum dichotomiflorum, post-emergence, Postemergence, 250 g ai/ha
  pest or weed control at 250 g/ha: 30%
[2]; Panicum dichotomiflorum, post-emergence, Postemergence, 500 g ai/ha
  pest or weed control at 500 g/ha: 65%
[2]; 31 g ai/ha
  Panicum, Fall plant response rating: 0
[2]; 62 g ai/ha
  Panicum, Fall plant response rating: 0
[2]; 125 g ai/ha
  Panicum, Fall plant response rating: 0
[2]; 250 g ai/ha
  Panicum, Fall plant response rating: 0
[2]; 500 g ai/ha
  Panicum, Fall plant response rating: 0
[3]; Bidens pilosa, post-emergence, Postemergence, 31 g ai/ha
  pest or weed control at 31 g/ha: 95%
[3]; Bidens pilosa, post-emergence, Postemergence, 62 g ai/ha
  pest or weed control at 62 g/ha: 100%
[3]; Bidens pilosa, post-emergence, Postemergence, 125 g ai/ha
  pest or weed control at 125 g/ha: 98%
[3]; Bidens pilosa, post-emergence, Postemergence, 250 g ai/ha
  pest or weed control at 250 g/ha: 98%
[3]; Bidens pilosa, post-emergence, Postemergence, 500 g ai/ha
  pest or weed control at 500 g/ha: 98%
[3]; 31 g ai/ha
  Beggarticks plant response rating: 0
[3]; 62 g ai/ha
  Beggarticks plant response rating: 0
[3]; 125 g ai/ha
  Beggarticks plant response rating: 25
[3]; 250 g ai/ha
  Beggarticks plant response rating: 50
[3]; 500 g ai/ha
  Beggarticks plant response rating: 65
[4]; Amaranthus palmeri, post-emergence, Postemergence, 31 g ai/ha
  pest or weed control at 31 g/ha: 70%
[4]; Amaranthus palmeri, post-emergence, Postemergence, 62 g ai/ha
  pest or weed control at 62 g/ha: 70%
[4]; Amaranthus palmeri, post-emergence, Postemergence, 125 g ai/ha
  pest or weed control at 125 g/ha: 90%
[4]; Amaranthus palmeri, post-emergence, Postemergence, 250 g ai/ha
  pest or weed control at 250 g/ha: 90%
[4]; Amaranthus palmeri, post-emergence, Postemergence, 500 g ai/ha
  pest or weed control at 500 g/ha: 100%
[4]; 31 g ai/ha
  Pigweed, Palmer plant response rating: 0
[4]; 62 g ai/ha
  Pigweed, Palmer plant response rating: 0
[4]; 125 g ai/ha
  Pigweed, Palmer plant response rating: 0
[4]; 250 g ai/ha
  Pigweed, Palmer plant response rating: 0
[4]; 500 g ai/ha
  Pigweed, Palmer plant response rating: 0
[5]; Cenchrus echinatus, post-emergence, Postemergence, 31 g ai/ha
  pest or weed control at 31 g/ha: 0%
[5]; Cenchrus echinatus, post-emergence, Postemergence, 62 g ai/ha
  pest or weed control at 62 g/ha: 0%
[5]; Cenchrus echinatus, post-emergence, Postemergence, 125 g ai/ha
  pest or weed control at 125 g/ha: 0%
[5]; Cenchrus echinatus, post-emergence, Postemergence, 250 g ai/ha
  pest or weed control at 250 g/ha: 0%
[5]; Cenchrus echinatus, post-emergence, Postemergence, 500 g ai/ha
  pest or weed control at 500 g/ha: 0%
[5]; 31 g ai/ha
  Sandbur plant response rating: 0
[5]; 62 g ai/ha
  Sandbur plant response rating: 0
[5]; 125 g ai/ha
  Sandbur plant response rating: 0
[5]; 250 g ai/ha
  Sandbur plant response rating: 0
[5]; 500 g ai/ha
  Sandbur plant response rating: 0
[6]; Euphorbia heterophylla, post-emergence, Postemergence, 31 g ai/ha, read-out: Plant response rating, Poinsettia, Wild
  pest or weed control at 31 g/ha: 0%
[6]; Euphorbia heterophylla, post-emergence, Postemergence, 62 g ai/ha, read-out: Plant response rating, Poinsettia, Wild
  pest or weed control at 62 g/ha: 0%
[6]; Euphorbia heterophylla, post-emergence, Postemergence, 125 g ai/ha, read-out: Plant response rating, Poinsettia, Wild
  pest or weed control at 125 g/ha: 0%
[6]; Euphorbia heterophylla, post-emergence, Postemergence, 250 g ai/ha, read-out: Plant response rating, Poinsettia, Wild
  pest or weed control at 250 g/ha: 0%
[6]; Euphorbia heterophylla, post-emergence, Postemergence, 500 g ai/ha, read-out: Plant response rating, Poinsettia, Wild
  pest or weed control at 500 g/ha: 0%
[6]; 31 g ai/ha
  Poinsettia, Wild plant response rating: 0
[6]; 62 g ai/ha
  Poinsettia, Wild plant response rating: 0
[6]; 125 g ai/ha
  Poinsettia, Wild plant response rating: 0
[6]; 250 g ai/ha
  Poinsettia, Wild plant response rating: 0
[6]; 500 g ai/ha
  Poinsettia, Wild plant response rating: 0
